From PubChem BioAssay AID1963836 (Molecular Pharmacology Branch, DTP, NCI, 2024)

System: 857933-349-R-J2-PDC complex spheroid viability
Assay: Anticancer human tumor 857933-349-R-J2-PDC patient-derived colon adenocarcinoma cell line growth inhibition [POLQ]
Settings: for IC50: curve of first compound; for viability, T/C: stronger effect = lower value
Experimental: Multicellular complex tumor spheroid response to Polymerase (POL) inhibitors (novobiocin, ART-558, RP6685) in combination with a variety of drugs and investigational agents in selected tumor cell lines
The POL inhibitors (novobiocin, ART-558, and RP6685) were evaluated both individually and in combination with standard of care and investigational anticancer small molecules within a complex spheroid model of solid tumors. . Complex spheroids include a stromal component modeled by human endothelial cells (HUVEC) and fibroblasts modeled by human mesenchymal stem cells (MSCs). The concentration ranges selected for each drug and investigational agent were based upon clinically achievable concentrations if the clinical Cmax of the agent was known.
Compounds. The drugs and investigational agents: novobiocin (NSC847541), ART-558 (NSC835418), RP-6685 (NSC848927), peposertib (NSC802822), ceralasertib (NSC780249), elimusertib (NSC800525), camonsertib (NSC841442), AZD-1390 (NSC803789), olaparib (NSC753686), talazoparib (NSC767125), rucaparib (NSC756644), sotorasib (NSC818433), MRTX-1133 (NSC836407), SN-38 (NSC673596), topotecan (NSC609699), epotoside (NSC141540), doxorubicin (NSC123127), gemcitabine (NSC613327), 5-fluorouracil (NSC19893), paclitaxel (NSC125973), vemurafenib (NSC761431), MSA-2 (NSC828583), SN-011 (NSC837082), adavosertib (NSC754352), prexasertib (NSC758257), carboplatin (NSC241240) and oxaliplatin (NSC266046), were obtained from the National Cancer Institute (NCI) Developmental Therapeutics Program Chemical Repository (21). The FDA-approved anticancer drug set is available from the Developmental Therapeutics Program at https://dtp.cancer.gov/organization/dscb/obtaining/. […] The stock solutions were prepared in dimethyl sulfoxide (DMSO, Sigma-Aldrich, St. Louis, MO, cat. D2650), except for the platinum compounds which were prepared in saline (Quality Biological, Gaithersburg, MD, cat. 114-055-101), at 800-fold the tested concentration and stored at -70 degrees C prior to their use. All drugs and investigational agents were tested over a range starting from a high concentration at or near the clinical Cmax and decreasing in half-log increments. If the clinical Cmax for an agent had not been determined, the highest concentration tested was 10 microM, except for SN-38, which was tested at a high concentration of 1 microM.
Cell Culture. All cells were maintained in an incubator at 37 degrees C and 5% CO2 with 95% humidity. The PDC lines were cultured according to standard operating procedures established by the NCI PDMR (https://pdmr.cancer.gov). Table 3 of the manuscript, lists the cell lines along with the number of the three cell types plated to form the mct-spheroids and media for tumor cell growth. After thawing, all PDC lines, except 997537-175-T-J1-PDC and 415267-285-R-J2-PDC, were cultured in Matrigel-coated flasks prepared with a working solution of 1X Ham's F-12 nutrient mix, without supplementation (Thermo Fisher Scientific, cat. 11765054), 100 U/mL penicillin-streptomycin (Thermo Fisher Scientific, cat. 15140122), and 2.5% Matrigel (Corning Inc., Corning, NY, cat. 354248) for the first three passages. The two PDC lines 997537-175-T-J1-PDC and 415267-285-R-J2-PDC were cultured on uncoated flasks. The 857933-349-R-J2-PDC line was cultured in 6C/Colon 1B media containing advanced DMEM/F-12 (Thermo Fisher Scientific, cat. 12634028), 10 mM HEPES (Thermo Fisher Scientific, cat. 15630080), 1X GlutaMAX supplement (Thermo Fisher Scientific, cat. 35050061), 0.1 mg/mL primocin (InvivoGen, San Diego, CA, cat. ant-pm-2), 10% defined fetal bovine serum, heat inactivated (HyClone Laboratories Inc., Logan, UT, cat. SH30070.03HI), 50% L-WRN conditioned media (ATCC, cat. CRL-3276), 1.25 mM N-Acetyl-L-cysteine (Sigma-Aldrich, cat. A9165), 10 mM nicotinamide (Sigma-Aldrich, cat. N0636), 1X B-27 supplement (Thermo Fisher Scientific, cat. 17504044), 1X N-2 supplement (Thermo Fisher Scientific, cat. […]

[1] = second compound 0.0316 µM, first compound 0.0316 µM
[2] = second compound 0.0316 µM, first compound 0.1 µM
[3] = second compound 0.1 µM, first compound 0.0316 µM
[4] = second compound 0.1 µM, first compound 0.1 µM
[5] = second compound 0.316 µM, first compound 0.0316 µM
[6] = second compound 0.316 µM, first compound 0.1 µM
[7] = second compound 1 µM, first compound 0.0316 µM
[8] = second compound 1 µM, first compound 0.1 µM
[9] = second compound 3.16 µM, first compound 0.0316 µM
[10] = second compound 3.16 µM, first compound 0.1 µM
[11] = second compound 10 µM, first compound 0.0316 µM
[12] = second compound 10 µM, first compound 0.1 µM
[13] = second compound 0.0316 µM, first compound 0.316 µM
[14] = second compound 0.0316 µM, first compound 1 µM
[15] = second compound 0.0316 µM, first compound 3.16 µM
[16] = second compound 0.0316 µM, first compound 10 µM
[17] = second compound 0.1 µM, first compound 0.316 µM
[18] = second compound 0.1 µM, first compound 1 µM
[19] = second compound 0.1 µM, first compound 3.16 µM
[20] = second compound 0.1 µM, first compound 10 µM
[21] = second compound 0.316 µM, first compound 0.316 µM
[22] = second compound 0.316 µM, first compound 1 µM
[23] = second compound 0.316 µM, first compound 3.16 µM
[24] = second compound 0.316 µM, first compound 10 µM
[25] = second compound 1 µM, first compound 0.316 µM
[26] = second compound 1 µM, first compound 1 µM
[27] = second compound 1 µM, first compound 3.16 µM
[28] = second compound 1 µM, first compound 10 µM
[29] = second compound 3.16 µM, first compound 0.316 µM
[30] = second compound 3.16 µM, first compound 1 µM
[31] = second compound 3.16 µM, first compound 3.16 µM
[32] = second compound 3.16 µM, first compound 10 µM
[33] = second compound 10 µM, first compound 0.316 µM
[34] = second compound 10 µM, first compound 1 µM
[35] = second compound 10 µM, first compound 3.16 µM
[36] = second compound 10 µM, first compound 10 µM
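Note: spheroids exposed to compounds for seven days before readout.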

CC[C@@]1(O)C(=O)OCc2c1cc1n(c2=O)Cc2cc3c(CN(C)C)c(O)ccc3nc2-1 + Nc1ccc(C#CCN(C(=O)Cc2ncc(C(F)(F)F)cc2C(F)(F)F)c2ccc(F)cc2)nn1
IC50 (second compound 0.0316 µM): 0.0717 µM
IC50 (second compound 0.1 µM): > 0.1 µM
IC50 (second compound 0.316 µM): 0.0773 µM
IC50 (second compound 1 µM): 0.0869 µM
IC50 (second compound 3.16 µM): 0.0638 µM
IC50 (second compound 10 µM): 0.0519 µM
viability, T/C (second compound 0.0316 µM, first compound 0.000316 µM): 89.2%
viability, T/C (second compound 0.0316 µM, first compound 0.001 µM): 103%
viability, T/C (second compound 0.0316 µM, first compound 0.00316 µM): 88.6%
viability, T/C (second compound 0.0316 µM, first compound 0.01 µM): 70.7%
viability, T/C [1]: 66.2%
viability, T/C [2]: 44%
viability, T/C (second compound 0.1 µM, first compound 0.000316 µM): 98.9%
viability, T/C (second compound 0.1 µM, first compound 0.001 µM): 95.7%
viability, T/C (second compound 0.1 µM, first compound 0.00316 µM): 94.8%
viability, T/C (second compound 0.1 µM, first compound 0.01 µM): 82.3%
viability, T/C [3]: 71%
viability, T/C [4]: 50.6%
viability, T/C (second compound 0.316 µM, first compound 0.000316 µM): 107%
viability, T/C (second compound 0.316 µM, first compound 0.001 µM): 121%
viability, T/C (second compound 0.316 µM, first compound 0.00316 µM): 87.5%
viability, T/C (second compound 0.316 µM, first compound 0.01 µM): 87%
viability, T/C [5]: 73.3%
viability, T/C [6]: 43%
viability, T/C (second compound 1 µM, first compound 0.000316 µM): 99.5%
viability, T/C (second compound 1 µM, first compound 0.001 µM): 100%
viability, T/C (second compound 1 µM, first compound 0.00316 µM): 97.2%
viability, T/C (second compound 1 µM, first compound 0.01 µM): 94.4%
viability, T/C [7]: 74%
viability, T/C [8]: 46.7%
viability, T/C (second compound 3.16 µM, first compound 0.000316 µM): 92.6%
viability, T/C (second compound 3.16 µM, first compound 0.001 µM): 96%
viability, T/C (second compound 3.16 µM, first compound 0.00316 µM): 92.1%
viability, T/C (second compound 3.16 µM, first compound 0.01 µM): 76.6%
viability, T/C [9]: 61.8%
viability, T/C [10]: 42.9%
viability, T/C (second compound 10 µM, first compound 0.000316 µM): 75.2%
viability, T/C (second compound 10 µM, first compound 0.001 µM): 86.1%
viability, T/C (second compound 10 µM, first compound 0.00316 µM): 92.5%
viability, T/C (second compound 10 µM, first compound 0.01 µM): 76.6%
viability, T/C [11]: 61.3%
viability, T/C [12]: 35.6%

Nc1ccn(C2OC(CO)C(O)C2(F)F)c(=O)n1 (stereo unspecified) + Nc1ccc(C#CCN(C(=O)Cc2ncc(C(F)(F)F)cc2C(F)(F)F)c2ccc(F)cc2)nn1
IC50 (second compound 0.0316 µM): 0.087 µM
IC50 (second compound 0.1 µM): 0.114 µM
IC50 (second compound 0.316 µM): 0.125 µM
IC50 (second compound 1 µM): 0.121 µM
IC50 (second compound 3.16 µM): 0.109 µM
IC50 (second compound 10 µM): 0.115 µM
viability, T/C [1]: 74.7%
viability, T/C [2]: 46.7%
viability, T/C [13]: 14.3%
viability, T/C [14]: 9.47%
viability, T/C [15]: 6.73%
viability, T/C [16]: 6.61%
viability, T/C [3]: 65.3%
viability, T/C [4]: 54.7%
viability, T/C [17]: 14.5%
viability, T/C [18]: 8.76%
viability, T/C [19]: 7.02%
viability, T/C [20]: 6.34%
viability, T/C [5]: 71.5%
viability, T/C [6]: 59.6%
viability, T/C [21]: 9.98%
viability, T/C [22]: 9.36%
viability, T/C [23]: 5.55%
viability, T/C [24]: 7.25%
viability, T/C [7]: 81%
viability, T/C [8]: 57.6%
viability, T/C [25]: 12%
viability, T/C [26]: 11.3%
viability, T/C [27]: 9.17%
viability, T/C [28]: 6.73%
viability, T/C [9]: 69.6%
viability, T/C [10]: 52.8%
viability, T/C [29]: 17.3%
viability, T/C [30]: 9.05%
viability, T/C [31]: 6.17%
viability, T/C [32]: 7.31%
viability, T/C [11]: 66.3%
viability, T/C [12]: 54.9%
viability, T/C [33]: 15%
viability, T/C [34]: 11.1%
viability, T/C [35]: 12.4%
viability, T/C [36]: 10.2%

CC1COCCN1c1cc(C2(O)CC3CCC(C2)O3)c2cnn(-c3ccn[nH]3)c2n1 (stereo unspecified) + Nc1ccc(C#CCN(C(=O)Cc2ncc(C(F)(F)F)cc2C(F)(F)F)c2ccc(F)cc2)nn1
IC50 (second compound 0.0316 µM): 0.863 µM
IC50 (second compound 0.1 µM): > 10 µM
IC50 (second compound 0.316 µM): 0.787 µM
IC50 (second compound 1 µM): 0.662 µM
IC50 (second compound 3.16 µM): > 10 µM
IC50 (second compound 10 µM): > 10 µM
viability, T/C [1]: 72.7%
viability, T/C [2]: 76.5%
viability, T/C [13]: 60.7%
viability, T/C [14]: 50.3%
viability, T/C [15]: 47.4%
viability, T/C [16]: 47.6%
viability, T/C [3]: 74.4%
viability, T/C [4]: 74.7%
viability, T/C [17]: 52.7%
viability, T/C [18]: 53.1%
viability, T/C [19]: 45.5%
viability, T/C [20]: 59%
viability, T/C [5]: 77.9%
viability, T/C [6]: 63.2%
viability, T/C [21]: 58.2%
viability, T/C [22]: 46.2%
viability, T/C [23]: 44.7%
viability, T/C [24]: 40.1%
viability, T/C [7]: 78%
viability, T/C [8]: 70.4%
viability, T/C [25]: 61.8%
viability, T/C [26]: 40.9%
viability, T/C [27]: 40%
viability, T/C [28]: 49.2%
viability, T/C [9]: 79.2%
viability, T/C [10]: 72.3%
viability, T/C [29]: 61.4%
viability, T/C [30]: 44.1%
viability, T/C [31]: 49.9%
viability, T/C [32]: 56.4%
viability, T/C [11]: 78.2%
viability, T/C [12]: 58.9%
viability, T/C [33]: 62.1%
viability, T/C [34]: 54%
viability, T/C [35]: 48.6%
viability, T/C [36]: 56%
